Test results as given in patent US11830582B2, “Methods of designing novel antibody mimetics for use in detecting antigens and as therapeutic agents” (UNIVERSITY OF MIAMI, priority 2018, dated 2023).

Key:
Assay type in all cases: binding
[1] = test system: intact ZIKV particles; experiment: Direct ELISA vs intact ZIKV particles; settings: for LOD: LOD=SB+3×SDB, interpolated from calibration curve; for FPLR maximum / FPLR minimum: delta absorbance 450 nm; for Long-term stability: dose-response performance of the assay; for FPLR C50 / FPLR slope: four-parameter logistic fit; for FPLR Dynamic Range: optimized peptide concentration of Table 5 (0.5-20 μM; 4G2 1 μg/ml); for dynamic range of dose-response curve (orders of magnitude): in words
Description: Before biotin functionalization, peptides stock solution was reduced using trialkylphosphine (TCEP) from ThermoFisher Scientific (www.thermofisher.com) and after 1 h the gel was removed using TCEP gel spin separation columns (ThermoFisher Scientific). Then, 2-fold molar excess of EZ-Link™ Maleimide-PEG2-Biotin (ThermoFisher Scientific) was added to purified peptide solution and incubated for 1 h. […] Therefore, no further separation was carried out.
(§1) To optimize all parameters of the direct ELISA protocol, Pierce 96-Well Polystyrene Plates, (ThermoFisher Scientific) were coated overnight at 4° C. with different concentrations of intact virus particles (ZIKV or DENV). The intact virus particles were diluted using 100 mM NaHCO3, pH 9.6, and aliquots of 100 μL were dispensed into each well of the plate using a multichannel pipette. This buffer pH assured a strong hydrophobic binding interaction between polystyrene and virus particles.
(§2) Intact particles both ZIKV and DENV were provided by Dr. Watkins group (University of Miami, Dep. of Pathology). The samples were controlled and counted by focus forming assay and RT-PCR, the details were reported in a previous work (Magnani et al., 2017). The Intact particles of ZIKV were inactivated using gamma irradiation. Assay biohazardous steps were carried out according to standard safety procedures.
(§3) After coating the plates overnight, the intact virus particles were removed by washing five times with the washing buffer (PBST) 10 mM PBS pH 7.4, 0.1% Tween-20, using an automated plate washer (MultiWash+, Molecular Devices, Sunnyvale, Calif.). Then, the plates were blocked with 200 μL of blocking buffers while shaking at 300 rpm at room temperature. The blocking buffers used were: Pierce™ Protein-Free (PBS) Blocking Buffer (PF), Blocker™ BLOTTO in TBS, SuperBlock™ Blocking Buffer, Blocker™ BSA (1×) in PBS. All blocking buffer were from ThermoFisher Scientific.
(§4) After 2 h the blocking buffers were removed using the same washing procedure mentioned above. 100 μL-aliquots of several dilutions of peptides biotinylated in 10 mM PBS pH 7.4 were placed in each well and incubated for 2 h while shaking at 300 rpm at room temperature. After the incubation, the unreacted peptides were removed by using the plate washer with the same settings. Then, 100 μL-aliquots of streptavidin-HRP (ThermoFisher Scientific) at a concentration of 20 ng/mL were added into each well and incubated for 30 min at room temperature without shaking. After the incubation, excess streptavidin-HRP was removed and the wells were washed with the plate washer five times using the washing buffer. Finally, 100 μL-aliquots of the Ultra TMB-ELISA Substrate Solution (ThermoFisher Scientific) were added and after 10 min the reaction was stopped by adding 100 μL aliquots of the TMB stop solution (SeraCare). The emission (450 nm) was read using a microplate reader (Clariostar Optima; BMG Labtech, Ortenberg, Germany).
The corresponding blank signals in triplicates were obtained by using all reagents without peptides. The blank signal was then subtracted to the average absorbance values for triplicate wells of each test.
The eight clamp peptides and the four mono-arm peptides selected, were tested vs intact ZIKV particles by using a direct ELISA. The peptides were biotinylated by using the maleimide-PEG2-biotin reagent that reacts with the sulfhydryl group of the cysteine efficiently and specifically by forming a stable thioether bond. The antibody 4G2 hybridoma mouse IgG2a was used as the reference and employed in combination with an anti-mouse IgG conjugated to HRP.
All analytical parameters involved in the development of ELISA were optimized by using 96-well plates coated with triplicate 10-fold serial dilutions of intact ZIKV particles.
Thus, the peptide concentrations reported in Table 5 were used to estimate the dynamic range and the LOD of the assay by using 10-fold serial dilutions of intact ZIKV particles from 10^^1 to 10^^8 copies/mL. […]

[2] = test system: intact DENV particles (DENV-1, -2 and -3); experiment: Cross-reactivity direct ELISA vs DENV serotypes
Description: as §1, §2, §3, §4
The cross-reactivity among Flaviviruses is a key parameter to be tested for this assay. […]

[3] = test system: intact ZIKV particles; experiment: Direct ELISA matrix effect in urine and serum; settings: urine 1:1, serum 1:10 diluted; 10^5 and 10^6 copies/mL ZIKV
Description: Usually, the presence of ZIKV in affected bodies is detected in biological fluids. Therefore, the analytical sensitivity of the selected peptides was tested in two biological matrices, namely, urine and serum. The matrix effect was investigated to understand how real biological fluids could modify the binding efficiency of the peptides.
FIG. 4 depicts the ELISA data using solutions of peptides with or without the urine and serum obtained coating clear 96-well plates with 10^^5 and 10^^6 copies/mL of intact ZIKV particles. Urine and serum were 1:1 and 1:10 diluted, respectively, with a concentrated peptide PBS solution (10 mM PBS, pH 7.4) to obtain a peptide final concentration of 0.5 μM for C3 and C6, 5 μM for C7 and 20 μM for mono-arm peptides (P2 and X1).

[4] = all DENV serotypes, 10^5 copies/mL coating

| Substance | LOD [1] | FPLR maximum [1] | FPLR minimum [1] | Long-term stability [1] | FPLR C50 [1] | FPLR slope [1] | FPLR Dynamic Range [1] | signal decrease DENV vs ZIKV [2, 4] | ELISA performance in urine and serum [3] | dynamic range of dose-response curve (orders of magnitude) [1] | signal decrease DENV vs ZIKV ([2]; DENV-2, 10^5 copies/mL coating) | signal decrease DENV vs ZIKV ([2]; DENV-3, 10^5 copies/mL coating) |
| --- | --- | --- | --- | --- | --- | --- | --- | --- | --- | --- | --- | --- |
| C4: clamp peptide WPWIGT (18) - bridge GPGCCGPG (32) - KTDAYS (27) (WPWIGTGPGCCGPGKTDAYS; C3 Binds to Active Site 2; Bridge peptide; C4 Binds to Active Site 1) | 5.7 log[ZIKV], copies/mL | 0.40 ΔA | 0.02 ΔA | >1 Month | 6.3 log[ZIKV], copies/mL | 32.8 | 6-7 log[ZIKV], copies/mL | – | – | – | – | – |
| C3: clamp peptide WPWIGT (18) - bridge GPGCCGPG (32) - KRNATP (26) (WPWIGTGPGCCGPGKRNATP; C3 Binds to Active Site 2; Bridge peptide; C3 Binds to Active Site 1) | 3.5 log[ZIKV], copies/mL | 0.67 ΔA | 0.05 ΔA | >1 Month | 5.3 log[ZIKV], copies/mL | 8.7 | 4-7 log[ZIKV], copies/mL | around 70% | better performance in urine than serum | three-order of magnitude | – | – |
| C-LRGHA (CLRGHA; P2) [mono-arm pentapeptide with N-terminal cysteine] | 4.5 log[ZIKV], copies/mL | 0.94 ΔA | 0.04 ΔA | >1 Month | 6.2 log[ZIKV], copies/mL | 19.9 | 5-7 log[ZIKV], copies/mL | – | – | – | – | – |
| C-KRNATP (CKRNATP; X1) [mono-arm hexapeptide with N-terminal cysteine] | 4.8 log[ZIKV], copies/mL | 0.98 ΔA | 0.03 ΔA | >1 Month | 6.1 log[ZIKV], copies/mL | 20.8 | 5-7 log[ZIKV], copies/mL | – | – | – | – | – |
| C6: clamp peptide AGRRP (20) - bridge GPGCCGPG (32) - LRGHA (25) (AGRRPGPGCCGPGLRGHA; C5 Binds to Active Site 2; Bridge peptide; C2 Binds to Active Site 1) | 3.5 log[ZIKV], copies/mL | 0.53 ΔA | 0.05 ΔA | >1 Month | 5.2 log[ZIKV], copies/mL | 10.1 | 4-7 log[ZIKV], copies/mL | – | strong decrease in the signal | three-order of magnitude | 45% | 55% |
| C7: clamp peptide MDSPIK (22) - bridge GPGCCGPG (32) - KRNATP (26) (MDSPIKGPGCCGPGKRNATP; C7 Binds to Active Site 2; Bridge peptide; C3 Binds to Active Site 1) | 3.7 log[ZIKV], copies/mL | 0.95 ΔA | 0.01 ΔA | >1 Month | 5.8 log[ZIKV], copies/mL | 5.3 | 4-7 log[ZIKV], copies/mL | around 70% | best performance among the three clamp peptides | three-order of magnitude | – | – |
| C-SWPGQ (CSWPGQ; P1) [mono-arm pentapeptide with N-terminal cysteine] | 6.8 log[ZIKV], copies/mL | – | – | >1 Month | – | – | 7-8 log[ZIKV], copies/mL | – | – | one order of magnitude | – | – |
| C5: clamp peptide AGRRP (20) - bridge GPGCCGPG (32) - SWPGQ (24) (AGRRPGPGCCGPGSWPGQ; C5 Binds to Active Site 2; Bridge peptide; C1 Binds to Active Site 1) | 5.8 log[ZIKV], copies/mL | 0.17 ΔA | 0.01 ΔA | >1 Month | 6.4 log[ZIKV], copies/mL | 25.6 | 6-7 log[ZIKV], copies/mL | – | – | – | – | – |
| C-KTDAYS (CKTDAYS; X2) [mono-arm hexapeptide with N-terminal cysteine] | 5.8 log[ZIKV], copies/mL | 0.91 ΔA | 0.01 ΔA | >1 Month | 6.1 log[ZIKV], copies/mL | 27.7 | 6-8 log[ZIKV], copies/mL | – | – | – | – | – |
| C2: clamp peptide WPHTQ (16) - bridge GPGCCGPG (32) - LRGHA (25) (WPHTQGPGCCGPGLRGHA; C1 Binds to Active Site 2; Bridge peptide; C2 Binds to Active Site 1) | 4.5 log[ZIKV], copies/mL | 0.55 ΔA | 0.05 ΔA | >1 Month | 6.2 log[ZIKV], copies/mL | 25.4 | 5-7 log[ZIKV], copies/mL | – | – | – | – | – |
| C8: clamp peptide MDSPIK (22) - bridge GPGCCGPG (32) - KTDAYS (27) (MDSPIKGPGCCGPGKTDAYS; C7 Binds to Active Site 2; Bridge peptide; C4 Binds to Active Site 1) | 4.7 log[ZIKV], copies/mL | 0.82 ΔA | 0.03 ΔA | >1 Month | 6.2 log[ZIKV], copies/mL | 33.9 | 5-7 log[ZIKV], copies/mL | – | – | – | – | – |
